Data from ChEMBL document CHEMBL1201862, “PubChem BioAssay data set” (2004).
Calls of active or inactive are those of the source.

How the values were obtained:
[1] = MIN6 cell viability loss – mouse insulinoma, cytotoxicity control, dose response (AID 2122); format: functional;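 further: confirmatory high-throughput counterscreen run to flag cytotoxic compounds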
[2] = viability of PTEN-deleted HCT116 cells – cell-based, HCT116 PTEN knockout, dose response (AID 1047); format: functional;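 further: HCT116 colon tumor cells with PTEN knocked out; cells exposed to compound for 60 hours before readout; potency for loss of cell viability measured by luminescence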
[3] = viability of HCT116 lacking mutant beta-catenin – cell-based, human colon tumor, dose response (AID 1045); format: functional;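 further: HCT116 colon tumor cells with beta catenin knocked out; cells exposed to compound for 60 hours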
[4] = decrease of insulin promoter-GFP reporter – imaging, high-content screening, mouse beta cells (AID 1628); format: functional; conditions: MIN6
Protein skinhead-1 = target: T1, Protein skinhead-1 (Caenorhabditis elegans, UniProt P34707); format: functional
T1 sequence (P34707 whole entry): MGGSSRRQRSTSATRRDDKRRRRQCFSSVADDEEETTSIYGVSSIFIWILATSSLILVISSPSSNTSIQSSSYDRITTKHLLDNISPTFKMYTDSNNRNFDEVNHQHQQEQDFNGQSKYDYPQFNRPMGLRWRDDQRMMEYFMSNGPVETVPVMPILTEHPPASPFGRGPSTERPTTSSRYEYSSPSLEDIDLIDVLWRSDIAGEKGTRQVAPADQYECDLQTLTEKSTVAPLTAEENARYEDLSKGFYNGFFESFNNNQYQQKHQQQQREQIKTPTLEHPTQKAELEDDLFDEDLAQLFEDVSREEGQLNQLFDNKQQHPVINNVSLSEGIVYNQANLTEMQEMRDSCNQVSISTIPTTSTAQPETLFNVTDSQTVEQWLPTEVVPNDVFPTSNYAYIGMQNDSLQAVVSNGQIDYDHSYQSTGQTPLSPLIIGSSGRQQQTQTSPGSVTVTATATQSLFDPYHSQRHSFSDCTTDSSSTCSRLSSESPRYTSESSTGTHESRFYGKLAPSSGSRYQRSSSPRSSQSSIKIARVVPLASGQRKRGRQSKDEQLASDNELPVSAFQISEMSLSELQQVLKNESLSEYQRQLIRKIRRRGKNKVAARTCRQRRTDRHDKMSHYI

[5] = target: Glucose-6-phosphate 1-dehydrogenase (Homo sapiens, UniProt P11413); assay: inhibition of Homo sapiens G6PD, dose series – biochemical, fluorescence, selectivity assay for P. falciparum G6PD inhibitor project, dose response (AID 504792); format: functional
Chain of Glucose-6-phosphate 1-dehydrogenase (P11413 whole entry): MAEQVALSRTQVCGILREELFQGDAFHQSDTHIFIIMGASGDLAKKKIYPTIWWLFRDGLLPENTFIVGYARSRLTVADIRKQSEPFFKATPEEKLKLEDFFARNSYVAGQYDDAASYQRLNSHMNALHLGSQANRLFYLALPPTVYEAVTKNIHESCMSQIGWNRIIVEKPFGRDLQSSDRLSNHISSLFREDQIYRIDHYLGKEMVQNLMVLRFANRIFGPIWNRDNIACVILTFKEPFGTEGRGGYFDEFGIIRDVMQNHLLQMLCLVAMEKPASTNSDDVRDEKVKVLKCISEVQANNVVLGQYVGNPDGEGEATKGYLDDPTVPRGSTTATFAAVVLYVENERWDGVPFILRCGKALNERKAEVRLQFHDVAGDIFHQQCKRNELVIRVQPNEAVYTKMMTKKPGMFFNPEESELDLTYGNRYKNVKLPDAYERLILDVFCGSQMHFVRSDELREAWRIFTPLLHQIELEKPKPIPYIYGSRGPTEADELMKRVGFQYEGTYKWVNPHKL

[6] = target: Induced myeloid leukemia cell differentiation protein Mcl-1 (Homo sapiens, UniProt Q07820); format: functional
Chain of Induced myeloid leukemia cell differentiation protein Mcl-1 (Q07820 whole entry): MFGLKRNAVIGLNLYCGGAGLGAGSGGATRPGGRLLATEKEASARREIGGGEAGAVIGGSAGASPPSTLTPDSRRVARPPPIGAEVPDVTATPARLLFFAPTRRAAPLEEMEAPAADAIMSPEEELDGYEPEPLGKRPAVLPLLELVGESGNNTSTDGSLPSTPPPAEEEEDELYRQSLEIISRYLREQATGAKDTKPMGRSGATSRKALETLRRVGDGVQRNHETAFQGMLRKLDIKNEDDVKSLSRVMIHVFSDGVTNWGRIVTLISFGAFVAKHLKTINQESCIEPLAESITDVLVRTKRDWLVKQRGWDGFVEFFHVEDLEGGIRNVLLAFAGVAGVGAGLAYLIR

Vero [7] = assay: cells; format: functional, cell-based; conditions: Chlorocebus sabaeus
Vero [8] = assay: cells; format: functional; conditions: Chlorocebus sabaeus
[9] = Luminescence Cell-Based Dose Retest to Confirm Inhibitors of Cancer Stem Cells. [Related pubchem assays (depositor defined):AID2717, AID2721]; format: functional; conditions: Homo sapiens
Estrogen receptor beta [10] = target: T2, Estrogen receptor beta (Homo sapiens, UniProt Q92731); assay: blockers of SRC-3 recruitment to ERβ – biochemical, ELISA, streptavidin-HRP readout, orthogonal assay, confirmation (AID 1060)
T2 sequence (Q92731 whole entry): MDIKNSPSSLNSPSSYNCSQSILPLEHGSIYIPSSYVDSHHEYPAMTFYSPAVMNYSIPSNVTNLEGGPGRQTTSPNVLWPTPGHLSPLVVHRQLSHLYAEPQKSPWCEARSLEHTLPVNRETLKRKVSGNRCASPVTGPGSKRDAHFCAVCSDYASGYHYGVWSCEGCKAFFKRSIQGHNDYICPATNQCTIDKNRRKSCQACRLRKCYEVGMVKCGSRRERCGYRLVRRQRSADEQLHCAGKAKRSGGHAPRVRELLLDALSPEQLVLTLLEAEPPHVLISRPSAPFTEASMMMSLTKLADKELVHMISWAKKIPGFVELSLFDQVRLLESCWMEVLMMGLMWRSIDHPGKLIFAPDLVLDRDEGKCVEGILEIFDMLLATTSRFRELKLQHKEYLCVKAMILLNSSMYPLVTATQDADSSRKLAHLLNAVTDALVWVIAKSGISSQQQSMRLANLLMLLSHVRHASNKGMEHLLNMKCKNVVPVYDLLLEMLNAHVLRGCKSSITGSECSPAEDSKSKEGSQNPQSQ

Estrogen receptor beta [11] = target: T2, Estrogen receptor beta
[12] = THP-1 cell cytotoxicity, dose response, cytotoxicity control for non-replicating M. tuberculosis project (AID 489025); format: functional
INS1 = assay: INS-1E survival protection against cytokine death – cell-based, luminescence, retest, dose response (AID 449756); format: functional; conditions: Rattus norvegicus;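 further: cell death triggered by IL-1 beta plus TNF-alpha plus IFN-gamma mixture; protective hits raise ATP signal compared with cytokine alone wells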
[13] = target: T3, Sentrin-specific protease 7 (Homo sapiens, UniProt Q9BQF6); format: functional;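 further: Luminescence-based dose-response confirmation of ultra-high-throughput screening hits, measuring inhibition of SENP7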
T3 sequence (Q9BQF6 whole entry): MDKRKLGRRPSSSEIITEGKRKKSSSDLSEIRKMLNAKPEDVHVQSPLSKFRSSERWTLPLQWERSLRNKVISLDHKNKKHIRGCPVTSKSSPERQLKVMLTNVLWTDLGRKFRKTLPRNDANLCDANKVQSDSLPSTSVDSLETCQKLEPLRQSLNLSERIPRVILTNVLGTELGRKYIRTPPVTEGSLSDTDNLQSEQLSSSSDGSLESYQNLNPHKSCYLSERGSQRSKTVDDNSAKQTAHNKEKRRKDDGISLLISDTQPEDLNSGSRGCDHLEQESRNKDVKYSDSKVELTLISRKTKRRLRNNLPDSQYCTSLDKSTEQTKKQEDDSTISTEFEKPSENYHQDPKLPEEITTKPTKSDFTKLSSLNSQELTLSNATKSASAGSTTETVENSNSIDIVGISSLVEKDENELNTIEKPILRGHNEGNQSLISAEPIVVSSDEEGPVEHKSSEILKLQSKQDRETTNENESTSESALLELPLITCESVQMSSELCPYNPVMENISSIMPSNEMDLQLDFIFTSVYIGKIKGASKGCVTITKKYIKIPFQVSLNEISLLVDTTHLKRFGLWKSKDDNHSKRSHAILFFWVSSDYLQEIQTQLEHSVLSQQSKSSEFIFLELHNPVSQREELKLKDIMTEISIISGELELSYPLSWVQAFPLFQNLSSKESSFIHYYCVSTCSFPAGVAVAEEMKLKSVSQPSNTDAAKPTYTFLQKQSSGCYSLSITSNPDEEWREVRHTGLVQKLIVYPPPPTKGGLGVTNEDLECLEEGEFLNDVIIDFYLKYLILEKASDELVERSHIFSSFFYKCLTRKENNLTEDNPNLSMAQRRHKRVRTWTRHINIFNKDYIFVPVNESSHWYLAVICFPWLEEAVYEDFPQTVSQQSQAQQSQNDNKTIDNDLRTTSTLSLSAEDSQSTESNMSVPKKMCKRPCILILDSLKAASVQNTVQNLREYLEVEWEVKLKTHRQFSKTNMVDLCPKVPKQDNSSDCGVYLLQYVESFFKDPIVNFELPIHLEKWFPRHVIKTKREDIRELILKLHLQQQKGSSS

[14] = target: T4, Sentrin-specific protease 8 (Homo sapiens, UniProt Q96LD8); format: functional;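 further: luminescence read-out of SENP8 inhibition, dose-response confirmation following an ultra-high-throughput screen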
T4 sequence (Q96LD8 whole entry): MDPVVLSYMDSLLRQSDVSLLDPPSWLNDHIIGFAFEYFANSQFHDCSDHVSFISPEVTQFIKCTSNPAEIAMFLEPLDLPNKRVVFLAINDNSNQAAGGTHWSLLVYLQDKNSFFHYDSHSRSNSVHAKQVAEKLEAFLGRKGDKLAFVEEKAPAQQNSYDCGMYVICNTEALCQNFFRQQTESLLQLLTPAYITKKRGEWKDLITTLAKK

[15] = target: T5, Sentrin-specific protease 6 (Homo sapiens, UniProt Q9GZR1); format: functional;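 further: Luminescence-based dose-response confirmatory assay of SENP6 inhibition, following up an ultra-high-throughput screen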
T5 sequence (Q9GZR1 whole entry): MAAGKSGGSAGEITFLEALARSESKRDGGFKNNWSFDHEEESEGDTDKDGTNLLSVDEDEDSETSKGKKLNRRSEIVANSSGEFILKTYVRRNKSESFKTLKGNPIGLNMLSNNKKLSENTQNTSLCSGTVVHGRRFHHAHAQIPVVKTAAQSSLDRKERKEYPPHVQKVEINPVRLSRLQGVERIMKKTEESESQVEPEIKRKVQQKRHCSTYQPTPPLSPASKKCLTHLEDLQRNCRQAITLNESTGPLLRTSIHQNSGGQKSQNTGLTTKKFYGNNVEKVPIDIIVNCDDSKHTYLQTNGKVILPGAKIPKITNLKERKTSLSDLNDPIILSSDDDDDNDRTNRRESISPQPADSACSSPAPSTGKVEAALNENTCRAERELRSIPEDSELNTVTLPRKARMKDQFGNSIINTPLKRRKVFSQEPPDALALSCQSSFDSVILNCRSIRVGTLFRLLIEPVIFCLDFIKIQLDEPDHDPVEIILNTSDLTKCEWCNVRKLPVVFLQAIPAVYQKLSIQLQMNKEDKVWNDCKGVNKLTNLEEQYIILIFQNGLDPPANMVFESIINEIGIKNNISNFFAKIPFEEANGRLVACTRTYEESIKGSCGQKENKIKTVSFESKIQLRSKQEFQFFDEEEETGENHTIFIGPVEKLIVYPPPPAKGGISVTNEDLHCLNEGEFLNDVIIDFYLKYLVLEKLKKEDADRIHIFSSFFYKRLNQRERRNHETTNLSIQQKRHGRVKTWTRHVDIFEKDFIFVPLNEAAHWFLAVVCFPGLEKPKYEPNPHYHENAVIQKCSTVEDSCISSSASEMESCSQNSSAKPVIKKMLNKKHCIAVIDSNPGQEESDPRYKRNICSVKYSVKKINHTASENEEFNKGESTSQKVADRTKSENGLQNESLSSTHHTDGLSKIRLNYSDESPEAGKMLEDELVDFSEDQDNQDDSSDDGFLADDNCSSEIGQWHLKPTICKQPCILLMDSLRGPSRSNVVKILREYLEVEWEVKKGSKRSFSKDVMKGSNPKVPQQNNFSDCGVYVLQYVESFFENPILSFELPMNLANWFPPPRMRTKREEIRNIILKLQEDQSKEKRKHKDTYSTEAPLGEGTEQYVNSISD

[16] = Vero E6 cell cytotoxicity, dose response, cytotoxicity control for non-replicating M. tuberculosis project, secondary assay (AID 492998); format: functional, VeroE6; conditions: Vero C1008
Caspase-3 = target: T6, Caspase-3 (Homo sapiens, UniProt P42574); format: functional;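 further: Dose-response selectivity test against caspase-3 for candidate inhibitors of sentrin-specific proteases (SENPs)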
T6 sequence (P42574 whole entry): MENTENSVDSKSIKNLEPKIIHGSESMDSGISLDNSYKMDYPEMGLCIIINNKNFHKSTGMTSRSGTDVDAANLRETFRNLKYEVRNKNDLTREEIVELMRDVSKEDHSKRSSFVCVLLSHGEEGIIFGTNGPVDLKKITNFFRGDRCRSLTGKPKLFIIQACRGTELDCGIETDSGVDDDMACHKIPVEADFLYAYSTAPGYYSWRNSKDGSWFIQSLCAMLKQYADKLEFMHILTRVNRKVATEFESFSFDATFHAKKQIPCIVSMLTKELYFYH

Cytochrome P450 1A2 = target: T7, Cytochrome P450 1A2 (Homo sapiens, UniProt P05177);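 further: PubChem cytochrome P450 panel assay, CYP1A2 panel member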
T7 sequence (P05177 whole entry): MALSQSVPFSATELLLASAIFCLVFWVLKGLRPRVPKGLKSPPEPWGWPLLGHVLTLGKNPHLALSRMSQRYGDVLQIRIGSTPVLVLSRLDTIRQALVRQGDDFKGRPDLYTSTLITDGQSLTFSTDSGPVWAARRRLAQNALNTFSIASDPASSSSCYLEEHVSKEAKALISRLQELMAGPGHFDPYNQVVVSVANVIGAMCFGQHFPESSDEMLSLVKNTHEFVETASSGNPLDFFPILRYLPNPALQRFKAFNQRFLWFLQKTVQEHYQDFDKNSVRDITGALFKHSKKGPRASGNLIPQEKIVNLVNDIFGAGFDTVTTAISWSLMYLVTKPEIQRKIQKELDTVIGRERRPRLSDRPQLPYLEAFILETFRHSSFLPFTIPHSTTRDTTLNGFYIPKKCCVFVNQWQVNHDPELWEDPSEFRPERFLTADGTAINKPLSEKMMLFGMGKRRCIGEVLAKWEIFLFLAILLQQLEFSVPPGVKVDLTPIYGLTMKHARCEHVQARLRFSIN

[17] = NIH3T3 cell viability loss – ATP luminescence, mouse fibroblasts, counter-screen, dose response (AID 2010); format: functional, cell-based;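 further: cells exposed to compound for about 90 hours before reading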
Prothrombin = Prothrombin (Homo sapiens, UniProt P00734); assay: Thrombin 1536 HTS Dose Response Confirmation. [Related pubchem assays: 1046 (Thrombin 1536 HTS; hits were confirmed in this assay)]; format: functional
Cytochrome P450 2C9 = Cytochrome P450 2C9 (Homo sapiens, UniProt P11712)
Chain of Cytochrome P450 2C9 (P11712 whole entry): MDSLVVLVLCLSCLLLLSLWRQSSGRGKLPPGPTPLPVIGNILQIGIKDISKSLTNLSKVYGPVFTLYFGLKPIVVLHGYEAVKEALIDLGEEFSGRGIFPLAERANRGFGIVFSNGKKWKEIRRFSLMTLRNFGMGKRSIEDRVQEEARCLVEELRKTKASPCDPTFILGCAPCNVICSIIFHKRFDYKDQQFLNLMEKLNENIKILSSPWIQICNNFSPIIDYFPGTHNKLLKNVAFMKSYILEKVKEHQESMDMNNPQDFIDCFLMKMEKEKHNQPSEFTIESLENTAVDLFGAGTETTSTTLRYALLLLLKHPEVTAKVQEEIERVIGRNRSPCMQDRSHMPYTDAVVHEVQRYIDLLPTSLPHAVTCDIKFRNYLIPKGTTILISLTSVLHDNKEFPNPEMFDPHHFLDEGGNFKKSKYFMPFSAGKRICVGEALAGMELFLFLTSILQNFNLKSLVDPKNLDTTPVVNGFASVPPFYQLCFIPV

Cytochrome P450 2C19 = Cytochrome P450 2C19 (Homo sapiens, UniProt P33261); assay: Cytochrome panel assay with activity outcomes. Panel member name: p450-cyp2c19 Compounds with AC50 equal or less than 10 uM are considered active; format: functional; conditions: read-out: AC50
Chain of Cytochrome P450 2C19 (P33261 whole entry): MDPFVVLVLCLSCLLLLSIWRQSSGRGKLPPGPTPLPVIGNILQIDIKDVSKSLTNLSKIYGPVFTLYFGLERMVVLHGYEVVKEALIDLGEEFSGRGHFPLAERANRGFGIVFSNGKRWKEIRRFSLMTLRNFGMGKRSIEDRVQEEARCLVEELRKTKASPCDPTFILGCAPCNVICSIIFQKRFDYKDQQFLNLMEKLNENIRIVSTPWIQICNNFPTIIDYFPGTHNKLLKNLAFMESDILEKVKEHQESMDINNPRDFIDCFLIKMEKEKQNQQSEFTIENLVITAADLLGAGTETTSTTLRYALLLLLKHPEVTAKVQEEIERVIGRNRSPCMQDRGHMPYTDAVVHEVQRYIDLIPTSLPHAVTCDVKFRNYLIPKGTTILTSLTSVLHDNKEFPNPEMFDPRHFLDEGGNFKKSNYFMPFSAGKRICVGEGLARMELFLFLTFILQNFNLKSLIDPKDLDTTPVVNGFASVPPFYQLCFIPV

[18] = Trypanosoma cruzi growth suppression in host cells – NIH3T3 host cells, beta-gal luminescence, confirmation (AID 2044); format: functional, cell-based;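 further: intracellular parasites grown in NIH/3T3 mouse fibroblasts as host cells; luminescent beta-galactosidase reporter signal from transgenic T. cruzi replicating inside host cells; inhibitors lower the luminescence signal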
Cytochrome P450 3A4 = Cytochrome P450 3A4 (Homo sapiens, UniProt P08684);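 further: CYP3A4 tested as one member of a cytochrome P450 panel screen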
Chain of Cytochrome P450 3A4 (P08684 whole entry): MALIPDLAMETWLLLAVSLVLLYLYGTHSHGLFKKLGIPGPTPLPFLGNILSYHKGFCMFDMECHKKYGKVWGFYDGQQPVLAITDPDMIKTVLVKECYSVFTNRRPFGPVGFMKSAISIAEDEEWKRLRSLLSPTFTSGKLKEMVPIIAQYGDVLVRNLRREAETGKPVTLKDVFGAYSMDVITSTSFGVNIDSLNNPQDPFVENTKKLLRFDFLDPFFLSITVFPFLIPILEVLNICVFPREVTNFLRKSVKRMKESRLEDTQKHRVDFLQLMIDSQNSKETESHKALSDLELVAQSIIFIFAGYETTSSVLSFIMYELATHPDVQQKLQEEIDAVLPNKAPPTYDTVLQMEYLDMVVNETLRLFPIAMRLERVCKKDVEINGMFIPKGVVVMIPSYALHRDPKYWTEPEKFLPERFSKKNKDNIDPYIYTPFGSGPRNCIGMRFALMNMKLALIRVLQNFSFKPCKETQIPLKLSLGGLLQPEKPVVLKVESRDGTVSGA

[19] = microbe, parasite or virus in culture; format: functional; conditions: Mycobacterium tuberculosis

## Cc1ccc(OCCCCn2cnc3ccccc32)c(C)c1
[1]
  IC50: 1.76 µM (active)
[2]
  EC50: 70.8 µM (active)
[3]
  EC50: 41.2 µM (active)
[4]
  IC50: 2.29 µM (active)
Protein skinhead-1
  IC50: > 100 µM (inactive)

## Cc1ccc(/C=C2\C(=O)NC(=S)N(c3ccccc3F)C2=O)s1
[5]
  IC50: > 80 µM (inactive)
[6]
  IC50: 4.91 µM (active)

## COc1cc(/C=C/C(=O)c2ccc(NS(=O)(=O)c3ccc(C)cc3)cc2)cc(OC)c1O
Vero [7]
  IC50: > 25 µM (active)
Vero [8]
  CC50: 14.5 µM (active)
[9]
  AC50: 2.27 µM (active)

## N=c1c(C(=O)NCc2ccco2)cc2c(=O)n3ccccc3nc2n1CCc1ccccc1
Estrogen receptor beta [10]
  IC50: > 50 µM (not active)
[1]
  IC50: 12.4 µM (inactive)
Estrogen receptor beta [11]
  IC50: > 50 µM (not active)
[4]
  IC50: 0.861 µM (active)

## O=[N+]([O-])c1ccc(-c2nc3cc([N+](=O)[O-])ccc3[nH]2)cc1
[12]
  CC50: 29.4 µM (active)
INS1
  AC50: 3.9 µM (active)
[13]
  IC50: 17 µM (active)
[14]
  IC50: 24.8 µM (active)
[15]
  IC50: 27.4 µM (active)
[16]
  CC50: 19.9 µM (active)
[2]
  EC50: 12 µM (active)
[3]
  EC50: 13.2 µM (active)
Caspase-3
  IC50: 27.2 µM (active)

## COc1ccc(-c2c[n+]3c4n2CCCCC4=C(c2ccccc2)C3)cc1
Cytochrome P450 1A2
  AC50: 28.2 µM (inconclusive)
[17]
  EC50: > 60 µM (not active)
Prothrombin
  IC50: > 50 µM (not active)
[1]
  IC50: 2.76 µM (active)
Cytochrome P450 2C9
  AC50: 0.0316 µM (inconclusive)
Cytochrome P450 2C19
  AC50: 3.55 µM (inconclusive)
[18]
  EC50: 0.169 µM (active)
Cytochrome P450 3A4
  AC50: 3.16 µM (inconclusive)
[4]
  IC50: > 16 µM (inactive)
[19]
  CC50: 28.1 µM (active)

## Cc1cc(C)nc(N=C(N)Nc2ccc(OCc3ccccc3)cc2)n1
[1]
  IC50: 1.22 µM (active)
[4]
  IC50: 0.988 µM (active)

## Cc1ccccc1OCC(=O)N/N=C/c1ccc(Sc2nc3ccccc3s2)o1
[5]
  IC50: > 80 µM (inactive)
